From paper PMC11423303, “Rational Design of Dual-Domain Binding Inhibitors for N-Acetylgalactosamine Transferase 2 with Improved Selectivity over the T1 and T3 Isoforms” (JACS Au, 2024)
Where two headings read alike, the source gives them in different places. Residues, ends and D or L forms follow the SMILES beside them. *: point of attachment. αGalNAc = CC(=O)N[C@@H]1[C@@H](O)[C@@H](O)[C@@H](CO)O[C@@H]1*; X2 = c1ccc2nc(C*)ccc2c1; X1 = c1csc(C*)c1

How the values were obtained:
GalNAc-T2 [1] = target: T1, GalNAc-T2 (Homo sapiens, UniProt Q10471); experiment: Radiometric GalNAc-T2 inhibition assay with labeled UDP-GalNAc donor and MUC1a acceptor peptide; type: biochemical; settings: for Relative inhibitory activity against GalNAc-T2: normalized concentration of 500 μM
T1 construct: made in house; host or cells: Pichia pastoris
T1 sequence (Q10471 whole entry): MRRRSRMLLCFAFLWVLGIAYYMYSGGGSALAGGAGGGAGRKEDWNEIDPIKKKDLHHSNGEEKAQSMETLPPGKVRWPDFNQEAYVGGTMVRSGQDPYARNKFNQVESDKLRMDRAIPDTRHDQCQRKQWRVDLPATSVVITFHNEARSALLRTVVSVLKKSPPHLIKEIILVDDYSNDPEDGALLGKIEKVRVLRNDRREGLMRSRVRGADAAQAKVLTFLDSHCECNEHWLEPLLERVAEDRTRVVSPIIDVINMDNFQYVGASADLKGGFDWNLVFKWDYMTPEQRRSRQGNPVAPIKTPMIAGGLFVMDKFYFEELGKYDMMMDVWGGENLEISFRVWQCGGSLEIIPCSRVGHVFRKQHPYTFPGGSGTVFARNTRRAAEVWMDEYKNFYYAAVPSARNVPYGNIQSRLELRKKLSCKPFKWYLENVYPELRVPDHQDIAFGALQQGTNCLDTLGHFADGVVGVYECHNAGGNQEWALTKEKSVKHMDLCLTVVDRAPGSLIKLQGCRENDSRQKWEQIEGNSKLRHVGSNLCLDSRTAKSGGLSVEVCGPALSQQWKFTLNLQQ
Protocol: The glycosylation products were isolated from the radiolabeled donors through chromatographic techniques and analyzed by scintillation counting.
(§1) 347 4. BIOCHEMICAL STUDIES
(§2) 348 4.1. Reagents and substrates
(§3) 349 Stock solutions of inhibitor (5mM) and MUC1a substrate (4mM) were prepared from
(§4) 350 lyophilized powders. Additional serial dilutions of inhibitor were prepared of 1 mM, 200 µM, 50
(§5) 351 µM, 10 µM, and 2 µM and the MUC1a substrate of 62.5 µM. Fully N-acetylated UDP-
(§6) 352 [ 3H]GalNAc was obtained from American Radiolabeled Chemicals Inc (St. Louis, MO) whereas
(§7) 353 nonlabelled UDP-GalNAc was obtained from Millipore-Sigma (St. Louis, MO). A 0.2 mM stock
(§8) 354 solution of radiolabeled UDP-GalNAc was prepared by adding UDP-[ 3H]GalNAc to unlabeled
(§9) 355 UDP-GalNAc to give ~6 x 10^8 DPM/µmole. ScintiVerse BD Cocktail fluid was obtained from
(§10) 356 Fisher Scientific (Pittsburgh, PA). Liquid scintillation counting was performed on a Beckman
(§11) 357 LS 6500 Scintillation Counter. BioPureSPN TARGA C18 macro spin columns were obtained
(§12) 358 from The Nest Group Inc. (Ipswich, MA).
(§13) 360 4.2. GalNAc-Ts expression
(§14) 361 Human GalNAc-T1 was a gift of Kelley Moremen (CCRC, University of Georgia) and
(§15) 362 expressed in HEK293F cells. Human GalNAc-T2, and -T3 were obtained from Ramon
363 Hertado-Guerrero (University of Zaragosa, SP) and expressed in Pichia pastoris.
366 The glycomimetic inhibitors were optimized using GalNAc-T2 activity assays as previously
367 described. The reactions were carried out in a total volume of 50 µl, containing 100 nM
369 cpm/nm) as the sugar donor. The designed glycomimetics were tested at a range of
371 conducted in 25 mM cacodylate buffer (pH 7.4) with 10 mM MnCl 2 and 0.25% Triton X-100,
372 and incubated at 22°C for 30 minutes. Excess UDP-[ 14C]GalNAc was removed from the
373 glycosylated peptide using DOWEX 1 chromatography, the product was subsequently
374 analyzed through scintillation counting.
377 protocol was used except UDP-[ 3H]GalNAc was utilized and the products isolated on Targa
378 C18 spin columns as previously described. Final enzyme concentrations were 100 nM for
379 GalNAc-T1 and -T3 and 200 nM for GalNAc-T2 while final MUC1a substrate and inhibitor 5
380 concentrations were as above. Reactions were incubated at 22°C for 30min for GalNAc-T1
381 and -T3 and 3h for GalNAc-T2. After incubation, reactions were quenched with 200µL of 0.5%
382 TFA in H 2O and passed through the spin columns. Columns were extensively washed with
383 0.1% TFA/H 2O and glycopeptide products eluted with 0.1% TFA in 50/50 acetonitrile/H2O
384 followed by 100% acetonitrile. The different eluates were analyzed by scintillation counting on
385 a Beckman LS 6500 Scintillation Counter. Relative percent peptide glycosylation was
386 calculated from the obtained 3H DPM as described in Ballard et al 2023. Reactions were
387 repeated twice for each transferase. After subtracting the no substrate blank, under these
390 Percent activity was plotted against the log concentration of inhibitor 19 in µM. […]

GalNAc-T1 [2] = system: GalNAc-T1; parameters: method as in Wandall H. H. et al., [16]; settings: ref Wandall H. H. et al., [16], cited from earlier work
GalNAc-T3 [3] = system: GalNAc-T3; parameters: method as in Wandall H. H. et al., [16]; settings: ref Wandall H. H. et al., [16], cited from earlier work
GalNAc-T2 [4] = system: GalNAc-T2; parameters: method as in Wandall H. H. et al., [16]; settings: ref Wandall H. H. et al., [16], cited from earlier work
GalNAc-T1 [5] = target: T2, GalNAc-T1 (Homo sapiens, UniProt Q10472); experiment: Radiometric GalNAc-T1 inhibition assay with UDP-[3H]GalNAc and MUC1a acceptor peptide; type: biochemical
T2 construct: made in house; host or cells: HEK293F cells (gift of Kelley Moremen, CCRC, University of Georgia)
T2 sequence (Q10472 1-559): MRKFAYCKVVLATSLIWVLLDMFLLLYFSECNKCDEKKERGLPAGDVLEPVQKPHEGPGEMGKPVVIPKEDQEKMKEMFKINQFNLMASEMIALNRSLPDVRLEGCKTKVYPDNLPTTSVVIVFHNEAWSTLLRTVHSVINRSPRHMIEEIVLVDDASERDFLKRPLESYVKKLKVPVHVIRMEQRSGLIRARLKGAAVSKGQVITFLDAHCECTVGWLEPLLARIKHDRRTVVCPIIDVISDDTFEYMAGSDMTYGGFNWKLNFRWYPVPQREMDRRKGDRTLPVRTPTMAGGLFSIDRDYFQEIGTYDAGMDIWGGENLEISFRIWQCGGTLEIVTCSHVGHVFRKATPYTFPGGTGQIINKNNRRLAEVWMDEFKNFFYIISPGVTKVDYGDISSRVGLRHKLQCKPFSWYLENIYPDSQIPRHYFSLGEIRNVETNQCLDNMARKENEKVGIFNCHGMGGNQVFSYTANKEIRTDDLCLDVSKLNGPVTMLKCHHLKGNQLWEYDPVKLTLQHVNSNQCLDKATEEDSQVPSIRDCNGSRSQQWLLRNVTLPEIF
Protocol: as §1, §2, §3, §4, §5, §6, §7, §8, §9, §10, §11, §12, §13, §14, §15
(§16) 363 Hertado-Guerrero (University of Zaragosa, SP) and expressed in Pichia pastoris. […]
367 described. […]
(§17) 384 followed by 100% acetonitrile. The different eluates were analyzed by scintillation counting on […]
(§18) 386 calculated from the obtained 3H DPM as described in Ballard et al 2023. […]

GalNAc-T3 [6] = target: T3, GalNAc-T3 (Homo sapiens, UniProt Q14435); experiment: Radiometric GalNAc-T3 inhibition assay with UDP-[3H]GalNAc and MUC1a acceptor peptide; type: biochemical
T3 construct: made in house; host or cells: Pichia pastoris
T3 sequence (Q14435 1-633): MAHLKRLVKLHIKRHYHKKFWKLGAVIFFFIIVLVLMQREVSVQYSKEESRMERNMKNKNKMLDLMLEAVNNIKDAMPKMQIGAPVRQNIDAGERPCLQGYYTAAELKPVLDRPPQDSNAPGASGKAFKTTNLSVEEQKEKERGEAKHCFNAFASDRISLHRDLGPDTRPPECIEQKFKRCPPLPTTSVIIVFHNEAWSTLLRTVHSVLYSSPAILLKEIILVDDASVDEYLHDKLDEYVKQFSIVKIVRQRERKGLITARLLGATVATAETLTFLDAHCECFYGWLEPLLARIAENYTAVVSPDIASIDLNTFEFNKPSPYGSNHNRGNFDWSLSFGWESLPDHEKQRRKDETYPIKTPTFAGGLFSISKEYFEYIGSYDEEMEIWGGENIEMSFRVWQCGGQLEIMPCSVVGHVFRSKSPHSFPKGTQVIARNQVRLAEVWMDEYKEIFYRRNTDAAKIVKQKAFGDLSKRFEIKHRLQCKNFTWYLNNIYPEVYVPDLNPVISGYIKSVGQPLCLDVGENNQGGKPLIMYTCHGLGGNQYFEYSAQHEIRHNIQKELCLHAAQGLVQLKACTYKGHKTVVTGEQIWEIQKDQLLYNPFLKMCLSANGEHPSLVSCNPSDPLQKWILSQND
Protocol: as §1, §2, §3, §4, §5, §6, §7, §8, §9, §10, §11, §12, §13, §14, §15, §16, §17, §18

GalNAc-T2 [7] = system: GalNAc-T2; parameters: method as in PMID 29061849; settings: read-out: IC50 against GalNAc-T2; cited from earlier work
GalNAc-T2 [8] = system: GalNAc-T2; parameters: method as in PMID 28362263; settings: cited from earlier work
FGF23 levels = system: FGF23 levels; parameters: method as in PMID 28362263; settings: chronic kidney disease treatment; cited from earlier work
GalNAc-T6 = system: GalNAc-T6; parameters: method as in PMID 28362263; settings: cited from earlier work
GalNAc-T3 [9] = system: GalNAc-T3; parameters: method as in PMID 28362263; settings: cited from earlier work
[10] = calculated from IC50 by Cheng & Prusoff equation, MUC1a and UDP-GalNAc substrates

Compound: N[C@@H](CSCc1cccs1)C(=O)O [Compound 16]
- Relative inhibitory activity against GalNAc-T2 (GalNAc-T2 [1]; MUC1a as acceptor substrate): unable to inhibit the enzyme

Compound: CC(=O)N[C@H]1[C@@H](OP(=O)(O)OP(=O)(O)OC[C@H]2O[C@@H](n3ccc(=O)[nH]c3=O)[C@H](O)[C@@H]2O)O[C@H](CO)[C@H](O)[C@@H]1O [UDP-GalNAc, uridine diphosphate-GalNAc]
- Km (GalNAc-T1 [2]; read-out: Km(UDP-GalNAc) GalNAc-T1): 62 µM
- Km (GalNAc-T3 [3]; read-out: Km(UDP-GalNAc) GalNAc-T3): 29 µM
- Km (GalNAc-T2 [4]; read-out: Km(UDP-GalNAc) GalNAc-T2): 10 µM

Compound: OCc1cccs1 [Compound 5, 2-thiophenemethanol]
- Relative inhibitory activity against GalNAc-T2 (GalNAc-T2 [1]; MUC1a as acceptor substrate): unable to inhibit the enzyme

Compound: CC(=O)N[C@H]1[C@@H](O[C@H](C)[C@H](NC(=O)[C@H](C)NC(=O)[C@H](C)NC(=O)[C@H](C)NC(=O)[C@H](C)NC(=O)[C@@H]2CCCN2C(=O)[C@@H](NC(=O)[C@@H]2CCCN2C(=O)[C@H](CSCc2cccs2)NC(=O)[C@@H]2CCCN2C(=O)[C@H](C)NC(=O)[C@H](C)NC(=O)CN)C(C)C)C(=O)N[C@@H](C)C(=O)N[C@@H](C)C(N)=O)O[C@H](CO)[C@H](O)[C@@H]1O [Compound 3] (H-GAAPC(X1)PVPAAAAT(αGalNAc)AA-NH2)
- IC50 (GalNAc-T2 [1]): 84.5 ± 25.9 µM

Compound: CC(=O)N[C@H]1[C@@H](O[C@H](C)[C@H](NC(=O)[C@H](C)NC(=O)[C@H](C)NC(=O)[C@@H](NC(=O)[C@H](CC(C)C)NC(=O)[C@@H]2CCCN2C(=O)[C@H](CC(C)C)NC(=O)[C@@H]2CCCN2C(=O)[C@H](CSCc2cccs2)NC(=O)[C@@H]2CCCN2)C(C)C)C(=O)N[C@@H](C)C(=O)N[C@@H](C)C(N)=O)O[C@H](CO)[C@H](O)[C@@H]1O [Compound 19] (H-PC(X1)PLPLVAAT(αGalNAc)AA-NH2)
- IC50 (GalNAc-T1 [5]; MUC1a as acceptor substrate, read-out: IC50 against GalNAc-T1): 678 ± 197 µM
- Ki (GalNAc-T1 [5]; [10]): 668 µM
- IC50 (GalNAc-T3 [6]; MUC1a as acceptor substrate, read-out: IC50 against GalNAc-T3): 171 ± 62.2 µM
- Ki (GalNAc-T3 [6]; [10]): 154 µM
- IC50 (GalNAc-T2 [1]): 21.4 ± 4.1 µM

Compound: O=c1cc(-c2ccc(O)c(O)c2)oc2cc(O)cc(O)c12 [luteolin]
- IC50 (GalNAc-T2 [7]): 14.7 µM

Compound: thiophene [Compound 15]
- Relative inhibitory activity against GalNAc-T2 (GalNAc-T2 [1]; MUC1a as acceptor substrate): unable to inhibit the enzyme

Compound: MUC1a: model peptide acceptor substrate with sequence AHGVTSAPDTR
- Km (GalNAc-T1 [2]; read-out: Km(MUC1a) GalNAc-T1): 660 µM
- Km (GalNAc-T3 [3]; read-out: Km(MUC1a) GalNAc-T3): 90 µM
- Km (GalNAc-T2 [4]; read-out: Km(MUC1a) GalNAc-T2): 2130 µM

Compound: CC(=O)N[C@H]1[C@@H](O[C@H](C)[C@H](NC(=O)[C@H](C)NC(=O)[C@H](C)NC(=O)[C@H](C)NC(=O)[C@H](C)NC(=O)[C@@H]2CCCN2C(=O)[C@H](Cc2c[nH]c3ccccc23)NC(=O)[C@@H]2CCCN2C(=O)[C@H](CSCc2cccs2)NC(=O)[C@@H]2CCCN2)C(=O)N[C@@H](C)C(=O)N[C@@H](C)C(N)=O)O[C@H](CO)[C@H](O)[C@@H]1O [Compound 18] (H-PC(X1)PWPAAAAT(αGalNAc)AA-NH2)
- IC50 (GalNAc-T2 [1]; MUC1a as acceptor substrate, read-out: IC50 against GalNAc-T2): 55.7 ± 31.5 µM

Compound: O=C(Nc1ccc(Nc2ccncc2)cc1)c1ccc(Nc2ccnc3ccc([N+](=O)[O-])cc23)cc1 [T3Inh-1]
- Activity against T2 variant (GalNAc-T2 [8]): no activity
- FGF23 levels in mice (FGF23 levels): lower the FGF23 levels
- Activity against T6 variant (GalNAc-T6): no activity
- Activity against GalNAc-T3 (GalNAc-T3 [9]): can act against GalNAc-T3

Compound: CC(=O)N[C@H]1[C@@H](O[C@H](C)[C@H](NC(=O)[C@H](C)NC(=O)[C@H](C)NC(=O)[C@H](C)NC(=O)[C@H](C)NC(=O)[C@@H]2CCCN2C(=O)[C@@H](NC(=O)[C@@H]2CCCN2C(=O)[C@H](CSCc2ccc3ccccc3n2)NC(=O)[C@@H]2CCCN2C(=O)[C@H](C)NC(=O)[C@H](C)NC(=O)CN)C(C)C)C(=O)N[C@@H](C)C(=O)N[C@@H](C)C(N)=O)O[C@H](CO)[C@H](O)[C@@H]1O [Compound 2] (H-GAAPC(X2)PVPAAAAT(αGalNAc)AA-NH2)
- IC50 (GalNAc-T2 [1]): 396 ± 172 µM
